Results reported in US20230398130A1, “METHODS AND COMPOSITIONS FOR DIFFERENTIATING STEM CELLS” (Massachusetts Institute of Technology, priority 2020, published 2023).

Assays:
ISC-enriched organoids [1] = test: Primary screen, 384-well 2.5-D organoid differentiation (ENR+CD, 6 days): carbachol-induced lysozyme secretion (LYZ.S); assay type: cell-based, murine; settings: primary screen; for Dose.FC.LYZ.S: FC vs plate median; for Z.LYZ.S: standard z score; for SSMD.LYZ.S: strictly standardized mean difference
Excerpt: (§1) High-throughput screening.

ISC-enriched organoids [2] = test: Primary screen, 384-well 2.5-D organoid differentiation (ENR+CD, 6 days): basal lysozyme secretion (LYZ.NS); assay type: cell-based, murine; settings: for Dose.FC.LYZ.NS: FC vs plate median; for SSMD.LYZ.NS: strictly standardized mean difference
Excerpt: as §1

ISC-enriched organoids [3] = test: Primary screen, 384-well 2.5-D organoid differentiation (ENR+CD, 6 days, Target Selective Inhibitor Library, vs whole-plate median): ATP (CellTiter-Glo 3D, CTG); settings: for Dose.FC.CTG: FC vs plate median; for SSMD.CTG: strictly standardized mean difference
[4] = Dose 0.08 uM, primary screen, standard z score
[5] = Dose 0.40 uM, primary screen, standard z score
[6] = Dose 2.00 uM, primary screen, standard z score
[7] = Dose 10.00 uM, primary screen, standard z score
[8] = primary screen, dose 0.08 uM, ENR+CD 6 days
[9] = primary screen, dose 0.08 uM, standard z score of FC
[10] = primary screen, dose 0.40 uM, ENR+CD 6 days
[11] = primary screen, dose 0.40 uM, standard z score of FC
[12] = primary screen, dose 2.00 uM, ENR+CD 6 days
[13] = primary screen, dose 2.00 uM, standard z score of FC
[14] = primary screen, dose 10.00 uM, ENR+CD 6 days
[15] = primary screen, dose 10.00 uM, standard z score of FC
[16] = 1st of the 4 dose lines of the treatment (dose not given)
[17] = 2nd of the 4 dose lines of the treatment (dose not given)
[18] = 3rd of the 4 dose lines of the treatment (dose not given)
[19] = 4th of the 4 dose lines of the treatment (dose not given)
[20] = primary screen, 1st of the 4 dose lines of the treatment (dose not given)
[21] = primary screen, 2nd of the 4 dose lines of the treatment (dose not given)
[22] = primary screen, 3rd of the 4 dose lines of the treatment (dose not given)
[23] = primary screen, 4th of the 4 dose lines of the treatment (dose not given)
[24] = Dose 0.08 uM, standard z score of FC
[25] = Dose 0.40 uM, standard z score of FC
[26] = Dose 2.00 uM, standard z score of FC
[27] = Dose 10.00 uM, standard z score of FC

Row | SMILES | Dose.FC.LYZ.S (ISC-enriched organoids [1]; Dose 0.08 uM) [log 2 fold change] | Dose.FC.LYZ.S (ISC-enriched organoids [1]; Dose 0.40 uM) [log 2 fold change] | Dose.FC.LYZ.S (ISC-enriched organoids [1]; Dose 2.00 uM) [log 2 fold change] | Dose.FC.LYZ.S (ISC-enriched organoids [1]; Dose 10.00 uM) [log 2 fold change] | Dose.FC.LYZ.NS (ISC-enriched organoids [2]; Dose 0.08 uM, primary screen) [log 2 fold change] | Z.LYZ.NS (ISC-enriched organoids [2]; [4]) | Dose.FC.LYZ.NS (ISC-enriched organoids [2]; Dose 0.40 uM, primary screen) [log 2 fold change] | Z.LYZ.NS (ISC-enriched organoids [2]; [5]) | Dose.FC.LYZ.NS (ISC-enriched organoids [2]; Dose 2.00 uM, primary screen) [log 2 fold change] | Z.LYZ.NS (ISC-enriched organoids [2]; [6]) | Dose.FC.LYZ.NS (ISC-enriched organoids [2]; Dose 10.00 uM, primary screen) [log 2 fold change] | Z.LYZ.NS (ISC-enriched organoids [2]; [7]) | Dose.FC.CTG (ISC-enriched organoids [3]; Dose 0.08 uM, primary screen) [log 2 fold change] | Z.CTG (ISC-enriched organoids [3]; [4]) | Dose.FC.CTG (ISC-enriched organoids [3]; Dose 0.40 uM, primary screen) [log 2 fold change] | Z.CTG (ISC-enriched organoids [3]; [5]) | Dose.FC.CTG (ISC-enriched organoids [3]; Dose 2.00 uM, primary screen) [log 2 fold change] | Z.CTG (ISC-enriched organoids [3]; [6]) | Dose.FC.CTG (ISC-enriched organoids [3]; Dose 10.00 uM, primary screen) [log 2 fold change] | Z.CTG (ISC-enriched organoids [3]; [7]) | further results
1 | NC(=O)c1cccc(-c2cc(Nc3ccc(OC(F)(F)F)cc3)ncn2)c1 [GNF-2] | 0.121 | 0.001 | 0.046 | −0.015 | 0.159 | 1.386 | −0.024 | −0.206 | 0.012 | 0.102 | −0.033 | −0.286 | 0.157 | 0.376 | 0.090 | 0.214 | 0.074 | 0.176 | 0.100 | 0.240 | 
2 | COc1ccc2c(c1)c(CC(=O)N1CCOCC1)c(C)n2C(=O)c1ccc(Cl)cc1 [BML-190] |  |  |  |  |  |  |  |  |  |  |  |  |  |  |  |  |  |  |  |  | Dose.FC.LYZ.S (ISC-enriched organoids [1]; dose 0.08 uM, ENR+CD 6 days): 0.060 log 2 fold change; Dose.FC.LYZ.S (ISC-enriched organoids [1]; dose 0.40 uM, ENR+CD 6 days): −0.037 log 2 fold change; Dose.FC.LYZ.S (ISC-enriched organoids [1]; dose 2.00 uM, ENR+CD 6 days): 0.017 log 2 fold change; Dose.FC.LYZ.S (ISC-enriched organoids [1]; dose 10.00 uM, ENR+CD 6 days): 0.067 log 2 fold change; Dose.FC.LYZ.NS (ISC-enriched organoids [2]; [8]): 0.072 log 2 fold change; Z.LYZ.NS (ISC-enriched organoids [2]; [9]): 0.623; Dose.FC.LYZ.NS (ISC-enriched organoids [2]; [10]): −0.017 log 2 fold change; Z.LYZ.NS (ISC-enriched organoids [2]; [11]): −0.152; Dose.FC.LYZ.NS (ISC-enriched organoids [2]; [12]): 0.116 log 2 fold change; Z.LYZ.NS (ISC-enriched organoids [2]; [13]): 1.011; Dose.FC.LYZ.NS (ISC-enriched organoids [2]; [14]): 0.209 log 2 fold change; Z.LYZ.NS (ISC-enriched organoids [2]; [15]): 1.823; Dose.FC.CTG (ISC-enriched organoids [3]; [8]): −0.003 log 2 fold change; Z.CTG (ISC-enriched organoids [3]; [9]): −0.007; Dose.FC.CTG (ISC-enriched organoids [3]; [10]): −0.099 log 2 fold change; Z.CTG (ISC-enriched organoids [3]; [11]): −0.237; Dose.FC.CTG (ISC-enriched organoids [3]; [12]): −0.106 log 2 fold change; Z.CTG (ISC-enriched organoids [3]; [13]): −0.254; Dose.FC.CTG (ISC-enriched organoids [3]; [14]): −0.106 log 2 fold change; Z.CTG (ISC-enriched organoids [3]; [15]): −0.254
3 | O=C(Nc1ccccc1)N1CCN(c2nc(-c3ccccc3)ns2)CC1 [JNJ-1661010] | 0.135 | 0.041 | −0.063 | −0.068 | 0.122 | 1.066 | 0.075 | 0.653 | 0.103 | 0.897 | 0.047 | 0.406 | −0.094 | −0.225 | −0.262 | −0.625 | −0.055 | −0.131 | −0.145 | −0.346 | Z.LYZ.S (ISC-enriched organoids [1]; [16]): 0.873; Z.LYZ.S (ISC-enriched organoids [1]; [17]): 0.263; Z.LYZ.S (ISC-enriched organoids [1]; [18]): −0.408; Z.LYZ.S (ISC-enriched organoids [1]; [19]): −0.441; SSMD.LYZ.S (ISC-enriched organoids [1]; [16]): 0.612; SSMD.LYZ.S (ISC-enriched organoids [1]; [17]): 0.250; SSMD.LYZ.S (ISC-enriched organoids [1]; [18]): −0.454; SSMD.LYZ.S (ISC-enriched organoids [1]; [19]): −0.449; SSMD.LYZ.NS (ISC-enriched organoids [2]; [20]): 0.805; SSMD.LYZ.NS (ISC-enriched organoids [2]; [21]): 0.332; SSMD.LYZ.NS (ISC-enriched organoids [2]; [22]): 0.332; SSMD.LYZ.NS (ISC-enriched organoids [2]; [23]): 0.237; SSMD.CTG (ISC-enriched organoids [3]; [20]): −0.169; SSMD.CTG (ISC-enriched organoids [3]; [21]): −0.659; SSMD.CTG (ISC-enriched organoids [3]; [22]): −0.113; SSMD.CTG (ISC-enriched organoids [3]; [23]): −0.309
4 | CCCCCCCCCCCCCCCCn1cc[n+](Cc2ccccc2)c1C.[I-] [NH125] | −0.114 | −0.237 | −0.358 | −0.374 | −0.035 |  | −0.188 |  | −0.219 |  | −0.263 |  | −0.347 |  | −0.508 |  | −1.106 |  | −1.787 |  | Z.LYZ.NS (ISC-enriched organoids [2]; [24]): −0.301; Z.LYZ.NS (ISC-enriched organoids [2]; [25]): −1.634; Z.LYZ.NS (ISC-enriched organoids [2]; [26]): −1.904; Z.LYZ.NS (ISC-enriched organoids [2]; [27]): −2.293; Z.CTG (ISC-enriched organoids [3]; [24]): −0.829; Z.CTG (ISC-enriched organoids [3]; [25]): −1.213; Z.CTG (ISC-enriched organoids [3]; [26]): −2.641; Z.CTG (ISC-enriched organoids [3]; [27]): −4.268
